Experimental findings from US12539292B2, “BRM targeting compounds and associated methods of use” (Arvinas Operations, Inc., priority 2018, dated 2026) are described below.

In the experiment the target is T1, BRM (Homo sapiens, UniProt P51531).
T1 construct: In-Cell Western Screen of BRM Degradation in SW1573 Cells; endogenous in cells; host or cells: SW1573
The experiment is described as follows: In-cell Western screen of BRM degradation in SW1573 cells (Dmax and DC50). It is filed as cell-based. In a few lines:
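SW1573, overnight cpd exposure (18-20 h), 0.1% DMSO final. PFA fix, 0.5% Triton permeabilization, block; IR secondaries at 800/680 nm. Odyssey read → Dmax, DC50.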

[1] abbreviates: BRM degradation, SW1573 cells, read-out: DC50.
Where [2] appears, read: BRM degradation, SW1573 cells, when tested at the top concentration of between 0.3 and 10 μM, read-out: Dmax (%) (% degraded).
Setting [3] is: BRM degradation, SW1573 cells, read-out: Dmax (% degraded).

Molecules are shown by their SMILES. Where two headings read alike, the source gives them in different places.

T1 sequence (P51531 whole entry): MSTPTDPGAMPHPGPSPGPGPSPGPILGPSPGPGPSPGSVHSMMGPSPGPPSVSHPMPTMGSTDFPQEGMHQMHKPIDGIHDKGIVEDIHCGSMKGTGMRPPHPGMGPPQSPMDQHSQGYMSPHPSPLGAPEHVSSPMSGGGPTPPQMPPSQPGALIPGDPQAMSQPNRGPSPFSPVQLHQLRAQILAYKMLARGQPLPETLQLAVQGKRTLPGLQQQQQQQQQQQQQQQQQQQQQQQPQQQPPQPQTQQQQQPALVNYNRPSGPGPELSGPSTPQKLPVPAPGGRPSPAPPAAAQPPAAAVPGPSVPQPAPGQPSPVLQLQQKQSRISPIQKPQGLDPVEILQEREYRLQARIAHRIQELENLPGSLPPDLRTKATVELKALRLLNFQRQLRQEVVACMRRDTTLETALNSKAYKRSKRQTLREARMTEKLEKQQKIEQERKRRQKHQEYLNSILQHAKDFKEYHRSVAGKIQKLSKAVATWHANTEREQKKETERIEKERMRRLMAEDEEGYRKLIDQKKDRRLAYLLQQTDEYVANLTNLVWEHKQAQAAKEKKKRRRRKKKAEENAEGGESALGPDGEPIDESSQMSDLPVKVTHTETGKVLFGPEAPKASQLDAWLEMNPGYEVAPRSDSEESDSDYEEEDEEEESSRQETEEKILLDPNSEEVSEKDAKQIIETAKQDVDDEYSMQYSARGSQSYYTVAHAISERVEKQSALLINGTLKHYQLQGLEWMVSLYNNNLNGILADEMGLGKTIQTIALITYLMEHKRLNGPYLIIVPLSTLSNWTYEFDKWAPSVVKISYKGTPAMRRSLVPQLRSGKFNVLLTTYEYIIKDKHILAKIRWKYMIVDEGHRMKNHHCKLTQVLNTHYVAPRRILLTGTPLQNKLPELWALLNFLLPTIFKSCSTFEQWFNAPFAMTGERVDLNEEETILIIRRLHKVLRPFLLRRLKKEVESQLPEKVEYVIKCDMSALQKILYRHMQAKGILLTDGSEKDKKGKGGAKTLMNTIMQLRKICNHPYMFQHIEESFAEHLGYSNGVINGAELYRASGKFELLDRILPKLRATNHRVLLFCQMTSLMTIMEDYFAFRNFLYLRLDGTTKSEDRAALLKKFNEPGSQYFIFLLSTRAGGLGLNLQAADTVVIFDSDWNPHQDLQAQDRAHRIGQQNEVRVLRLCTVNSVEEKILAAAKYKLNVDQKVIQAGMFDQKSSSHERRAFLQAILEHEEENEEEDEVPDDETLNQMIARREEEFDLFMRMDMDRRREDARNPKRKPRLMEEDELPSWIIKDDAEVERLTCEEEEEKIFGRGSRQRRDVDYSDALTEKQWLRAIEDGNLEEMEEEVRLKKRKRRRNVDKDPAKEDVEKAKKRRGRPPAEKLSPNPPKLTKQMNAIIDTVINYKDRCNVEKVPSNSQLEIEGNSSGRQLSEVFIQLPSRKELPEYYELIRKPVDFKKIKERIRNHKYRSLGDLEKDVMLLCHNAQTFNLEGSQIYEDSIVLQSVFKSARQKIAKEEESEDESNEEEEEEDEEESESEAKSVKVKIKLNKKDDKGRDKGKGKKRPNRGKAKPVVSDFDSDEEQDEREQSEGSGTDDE

A word on the DC50: it is the concentration giving 50% degradation. A word on the Dmax: it is the largest share of the target that was removed. As for `Cc1ncsc1-c1ccc([C@H](C)NC(=O)[C@@H]2C[C@@H](O)CN2C(=O)[C@@H](c2cc(OCCN3CCN(Cc4ccc(C(C)n5cc(-c6cc(-c7ccccc7O)nnc6N)cn5)cc4)CC3)no2)C(C)C)cc1` (stereo partly drawn) [compound 83, (2S,4R)-1-((2R)-2-(3-(2-(4-(4-(1-(4-(3-amino-6-(2-hydroxyphenyl)pyridazin-4-yl)-1H-pyrazol-1-yl)ethyl)benzyl)piperazin-1-yl)ethoxy)isoxazol-5-yl)-3-methylbutanoyl)-4-hydroxy-N-((S)-1-(4-(4-methylthiazol-5-yl)phenyl)ethyl)pyrrolidine-2-carboxamide], the DC50 under setting [1] was < 2.5 nM. For the same compound, the Dmax under setting [2] is > 75%. As for `Cc1n[nH]c(C)c1-c1ccc([C@H](C)NC(=O)[C@@H]2C[C@@H](O)CN2C(=O)[C@@H](c2cc(OCCN3CCC(O[C@H]4C[C@H](Oc5cc(N6C7CCC6CN(c6cc(-c8ccccc8O)nnc6N)C7)ccn5)C4)CC3)no2)C(C)C)cc1` [compound 378, (2S,4R)-1-((2R)-2-(3-(2-(4-((1r,3R)-3-((4-(3-(3-amino-6-(2-hydroxyphenyl)pyridazin-4-yl)-3,8-diazabicyclo[3.2.1]octan-8-yl)pyridin-2-yl)oxy)cyclobutoxy)piperidin-1-yl)ethoxy)isoxazol-5-yl)-3-methylbutanoyl)-N-((S)-1-(4-(3,5-dimethyl-1H-pyrazol-4-yl)phenyl)ethyl)-4-hydroxypyrrolidine-2-carboxamide], the Dmax (SW1573, % degraded, when tested at the top concentration of between 0.3 and 10 μM, read-out: BRM Dmax (%)) is > 75%. The DC50 (target protein degradation, read-out: BRM DC50) is < 2.5 nM. For the compound `Cc1ncsc1-c1ccc([C@H](C)NC(=O)[C@@H]2C[C@@H](O)CN2C(=O)[C@@H](c2cc(N3CCN(C(C)[C@H]4C[C@H](Oc5cc(N6C7CCC6CN(c6cc(-c8ccccc8O)nnc6N)C7)ccn5)C4)CC3)no2)C(C)C)cc1` (stereo partly drawn) [compound 704, (2S,4R)-1-((2R)-2-(3-(4-((1S)-1-((1r,3S)-3-((4-(3-(3-amino-6-(2-hydroxyphenyl)pyridazin-4-yl)-3,8-diazabicyclo[3.2.1]octan-8-yl)pyridin-2-yl)oxy)cyclobutyl)ethyl)piperazin-1-yl)isoxazol-5-yl)-3-methylbutanoyl)-4-hydroxy-N-((S)-1-(4-(4-methylthiazol-5-yl)phenyl)ethyl)pyrrolidine-2-carboxamide], the DC50 under setting [1] is < 2.5 nM. In addition, the Dmax under setting [3] is > 75%. Consider `Cc1ncsc1-c1ccc([C@H](C)NC(=O)[C@@H]2C[C@@H](O)CN2C(=O)[C@H](c2cc(N3CC(CN4CC(COc5cc(N6C7CCC6CN(c6cc(-c8ccccc8O)nnc6N)C7)ccn5)C4)C3)no2)C(C)C)cc1` [compound 518, (2S,4R)-1-((2S)-2-(3-(3-((3-(((4-(3-(3-amino-6-(2-hydroxyphenyl)pyridazin-4-yl)-3,8-diazabicyclo[3.2.1]octan-8-yl)pyridin-2-yl)oxy)methyl)azetidin-1-yl)methyl)azetidin-1-yl)isoxazol-5-yl)-3-methylbutanoyl)-4-hydroxy-N-((S)-1-(4-(4-methylthiazol-5-yl)phenyl)ethyl)pyrrolidine-2-carboxamide], for which the DC50 (BRM degradation, read-out: BRM DC50) is > 30 nM. On to `Cc1nccn1-c1ccc([C@H](C)NC(=O)[C@@H]2C[C@@H](O)CN2C(=O)[C@H](c2cc(OCCN3CCN(CCOc4cc(N5C6CCC5CN(c5cc(-c7ccccc7O)nnc5N)C6)ccn4)CC3)no2)C(C)C)cc1` [compound 75, (2S,4R)-1-((2S)-2-(3-(2-(4-(2-((4-(3-(3-amino-6-(2-hydroxyphenyl)pyridazin-4-yl)-3,8-diazabicyclo[3.2.1]octan-8-yl)pyridin-2-yl)oxy)ethyl)piperazin-1-yl)ethoxy)isoxazol-5-yl)-3-methylbutanoyl)-4-hydroxy-N-((S)-1-(4-(2-methyl-1H-imidazol-1-yl)phenyl)ethyl)pyrrolidine-2-carboxamide], for which, under setting [1], the DC50 fell in the range of 10 to 30 nM. Also, the Dmax under setting [2] was > 75%.

Regarding `Cc1ncsc1-c1ccc([C@H](C)NC(=O)[C@@H]2C[C@@H](O)CN2C(=O)[C@@H](c2cc(OCCN3CC[C@@H](O[C@H]4C[C@H](Oc5cc(N6C7CCC6CN(c6cc(-c8ccccc8O)nnc6N)C7)ccn5)C4)C[C@@H]3C)no2)C(C)C)cc1` [compound 627, (2S,4R)-1-((2R)-2-(3-(2-((2S,4R)-4-((1r,3R)-3-((4-(3-(3-amino-6-(2-hydroxyphenyl)pyridazin-4-yl)-3,8-diazabicyclo[3.2.1]octan-8-yl)pyridin-2-yl)oxy)cyclobutoxy)-2-methylpiperidin-1-yl)ethoxy)isoxazol-5-yl)-3-methylbutanoyl)-4-hydroxy-N-((S)-1-(4-(4-methylthiazol-5-yl)phenyl)ethyl)pyrrolidine-2-carboxamide], the DC50 under setting [1] is < 2.5 nM. In addition, the Dmax under setting [3] was > 75%. In the case of `Cc1ncsc1-c1ccc([C@H](C)NC(=O)[C@@H]2C[C@@H](O)CN2C(=O)C(C(C)C)n2cc(OCCN3CCN(CCOc4cc(N5C6CCC5CN(c5cc(-c7ccccc7O)nnc5N)C6)ccn4)CC3)cn2)cc1` (stereo in doubt) [compound 39, (2S,4R)-1-[(2S)-2-[4-[2-(4-[2-[(4-[3-[3-amino-6-(2-hydroxyphenyl)pyridazin-4-yl]-3,8-diazabicyclo[3.2.1]octan-8-yl]pyridin-2-yl)oxy]ethyl]piperazin-1-yl)ethoxy]-1H-pyrazol-1-yl]-3-methylbutanoyl]-4-hydroxy-N-[(1S)-1-[4-(4-methyl-1,3-thiazol-5-yl)phenyl]ethyl]pyrrolidine-2-carboxamide], the DC50 under setting [1] is > 30 nM. The Dmax under setting [2] is > 75%. Consider `Cc1ncsc1-c1ccc(CNC(=O)[C@@H]2C[C@@H](O)CN2C(=O)[C@@H](c2cc(OCCOCCOCCOCCOc3cc(N4C5CCC4CN(c4cc(-c6ccccc6O)nnc4N)C5)ccn3)no2)C(C)C)cc1` [compound 30, (2S,4R)-1-[(2R)-2-(3-[[1-(4-[3-[3-amino-6-(2-hydroxyphenyl)pyridazin-4-yl]-3,8-diazabicyclo[3.2.1]octan-8-yl]pyridin-2-yl)-1,4,7,10-tetraoxadodecan-12-yl]oxy]-1,2-oxazol-5-yl)-3-methylbutanoyl]-4-hydroxy-N-[[4-(4-methyl-1,3-thiazol-5-yl)phenyl]methyl]pyrrolidine-2-carboxamide], for which the DC50 under setting [1] was < 2.5 nM. The Dmax under setting [2] was > 75%. As to `Cc1ncsc1-c1ccc([C@H](C)NC(=O)[C@@H]2C[C@@H](O)CN2C(=O)[C@H](c2cc(OCCN3CCC(O[C@H]4C[C@H](Oc5cc(N6C7CCC6CN(c6cc(-c8ccccc8O)nnc6N)C7)ccn5)C4)CC3)no2)C(C)C)cc1F` [compound 252, (2S,4R)-1-((2S)-2-(3-(2-(4-((1r,3S)-3-((4-(3-(3-amino-6-(2-hydroxyphenyl)pyridazin-4-yl)-3,8-diazabicyclo[3.2.1]octan-8-yl)pyridin-2-yl)oxy)cyclobutoxy)piperidin-1-yl)ethoxy)isoxazol-5-yl)-3-methylbutanoyl)-N-((S)-1-(3-fluoro-4-(4-methylthiazol-5-yl)phenyl)ethyl)-4-hydroxypyrrolidine-2-carboxamide], under setting [1], the DC50 is > 30 nM. In addition, where the note is “BRM degradation, SW1573 cells, tested at the top concentration of between 0.3 and 10 μM, read-out: Dmax (%) (% degraded)”, the Dmax was > 75%.
